Data as given in PMC3723589 (Channels, 2010).
Values joined by “and” are separate entries in the source; they are usually repeats but may differ in a detail not shown here. Equal entries are not always repeated. Where two headings read alike, the source gives them in different places.

Legend:
mouse Slo1 K+ channels [1] = target: T1, mouse Slo1 K+ channels (Mus musculus, UniProt Q08460); assay: Block of Slo1 currents, blocker applied extracellularly to outside-out patches; type: cell-based
[2] = target: T2, MC13 (Slo1(1-181):Slo3(171-1121)) (Mus musculus, UniProt O54982); assay: Block of MC13; type: cell-based
mouse Slo1 K+ channels [3] = target: T1, mouse Slo1 K+ channels; assay: Block of Slo1 currents, blocker applied cytosolically to inside-out patches; type: cell-based
[4] = target: T2, MC13 (Slo1(1-181):Slo3(171-1121)); type: cell-based
[5] = pK and percent protonation of tertiary amines; type: physicochemical; details: quinidine at pH 8.5; calculated from pK 8.6
IRK1 = details: read-out: EC50, block of IRK1; cited from earlier work
ROMK1 = details: cited from earlier work
[6] = tested on: native pH-dependent KSper K+ channel; details: 500 μM quinidine; activation at pH 7.5 and +100 mV; cited from earlier work
sperm = details: cited from earlier work
[7] = quinidine; cited from earlier work
[8] = extracellular quinidine, 300 μM Ca2+, pH 8.5, fit OB-CB (2') 4 params
[9] = extracellular quinidine, pH 8.5, fit OB-CB (2') 4 params
[10] = intracellular quinidine, pH 8.5, fit OB-CB (2') 4 params

T2 sequence (O54982 171-1121): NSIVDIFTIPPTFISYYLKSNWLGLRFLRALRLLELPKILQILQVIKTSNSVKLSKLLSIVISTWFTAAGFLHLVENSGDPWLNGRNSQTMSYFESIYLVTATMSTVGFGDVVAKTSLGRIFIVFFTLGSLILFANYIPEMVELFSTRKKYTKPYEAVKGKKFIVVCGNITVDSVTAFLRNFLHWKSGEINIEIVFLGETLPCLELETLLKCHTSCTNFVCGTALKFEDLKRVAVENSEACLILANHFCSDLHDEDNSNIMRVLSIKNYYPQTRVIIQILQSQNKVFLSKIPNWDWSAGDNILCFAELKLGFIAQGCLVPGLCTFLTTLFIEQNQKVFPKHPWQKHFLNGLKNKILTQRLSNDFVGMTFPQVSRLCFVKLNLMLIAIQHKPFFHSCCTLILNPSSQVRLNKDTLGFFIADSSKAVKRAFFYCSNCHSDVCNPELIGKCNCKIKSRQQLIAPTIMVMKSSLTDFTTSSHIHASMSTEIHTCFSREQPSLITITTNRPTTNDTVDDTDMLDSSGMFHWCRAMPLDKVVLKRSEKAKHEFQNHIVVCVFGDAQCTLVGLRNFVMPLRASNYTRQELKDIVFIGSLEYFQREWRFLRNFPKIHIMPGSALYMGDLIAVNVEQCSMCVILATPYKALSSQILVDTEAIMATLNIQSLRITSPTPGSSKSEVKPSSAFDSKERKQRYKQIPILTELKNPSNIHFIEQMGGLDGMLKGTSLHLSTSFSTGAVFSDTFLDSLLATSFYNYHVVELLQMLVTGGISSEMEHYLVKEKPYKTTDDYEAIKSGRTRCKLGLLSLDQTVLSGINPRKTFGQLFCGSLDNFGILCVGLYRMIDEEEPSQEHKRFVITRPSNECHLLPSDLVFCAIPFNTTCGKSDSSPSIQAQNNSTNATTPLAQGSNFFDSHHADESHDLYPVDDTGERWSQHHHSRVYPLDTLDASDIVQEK
T2 sequence (Q08460 66-246 partner): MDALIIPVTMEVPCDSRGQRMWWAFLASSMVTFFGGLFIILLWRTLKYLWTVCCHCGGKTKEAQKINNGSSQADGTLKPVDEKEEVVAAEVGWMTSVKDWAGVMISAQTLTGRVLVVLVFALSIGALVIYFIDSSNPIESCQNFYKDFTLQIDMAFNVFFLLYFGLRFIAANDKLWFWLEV
T1 sequence (Q08460 66-1209 limits assumed): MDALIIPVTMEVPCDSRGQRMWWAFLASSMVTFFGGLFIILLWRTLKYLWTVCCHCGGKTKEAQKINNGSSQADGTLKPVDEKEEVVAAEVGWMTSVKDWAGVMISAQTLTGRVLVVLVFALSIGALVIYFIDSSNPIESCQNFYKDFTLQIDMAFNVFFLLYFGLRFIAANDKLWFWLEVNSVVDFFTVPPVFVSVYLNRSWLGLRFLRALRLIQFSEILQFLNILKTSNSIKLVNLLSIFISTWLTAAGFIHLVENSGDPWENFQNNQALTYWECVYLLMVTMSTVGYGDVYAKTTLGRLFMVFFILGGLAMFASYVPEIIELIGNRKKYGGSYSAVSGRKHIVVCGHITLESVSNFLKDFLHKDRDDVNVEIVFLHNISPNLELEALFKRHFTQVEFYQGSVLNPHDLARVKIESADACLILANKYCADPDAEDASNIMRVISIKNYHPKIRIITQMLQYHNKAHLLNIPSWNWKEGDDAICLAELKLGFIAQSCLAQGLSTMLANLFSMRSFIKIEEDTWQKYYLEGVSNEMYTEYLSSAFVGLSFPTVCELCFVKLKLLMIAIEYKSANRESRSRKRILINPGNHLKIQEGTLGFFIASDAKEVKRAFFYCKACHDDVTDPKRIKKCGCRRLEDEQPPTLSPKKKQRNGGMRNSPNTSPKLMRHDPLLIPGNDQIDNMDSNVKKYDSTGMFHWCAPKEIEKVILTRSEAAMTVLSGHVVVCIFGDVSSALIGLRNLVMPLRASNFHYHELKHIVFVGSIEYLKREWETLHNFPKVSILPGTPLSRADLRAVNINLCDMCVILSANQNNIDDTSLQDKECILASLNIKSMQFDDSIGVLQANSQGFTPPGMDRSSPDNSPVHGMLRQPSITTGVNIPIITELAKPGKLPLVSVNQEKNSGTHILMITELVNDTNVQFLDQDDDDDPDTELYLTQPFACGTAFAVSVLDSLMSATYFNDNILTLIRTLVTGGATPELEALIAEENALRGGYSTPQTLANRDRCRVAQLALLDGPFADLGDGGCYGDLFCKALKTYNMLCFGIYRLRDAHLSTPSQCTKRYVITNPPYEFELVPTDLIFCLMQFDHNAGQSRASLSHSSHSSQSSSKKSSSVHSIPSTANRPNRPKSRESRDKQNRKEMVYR

Work on `C=C[C@H]1C[N@@]2CC[C@H]1C[C@@H]2[C@@H](O)c1ccnc2ccc(OC)cc12` [quinidine] yielded a Kb (mouse Slo1 K+ channels [1]) of 950 ± 20 µM, a Kd (mouse Slo1 K+ channels [1]; Kbc, extracellular quinidine, 300 μM Ca2+, pH 8.5, fit OB-CB (2') 4 params) of 1200 ± 210 µM and a Kd (mouse Slo1 K+ channels [1]; Kbo, extracellular quinidine pH 7.0, 300 μM Ca2+, pH 8.5, fit OB (1a) 2 params) of 950 ± 20 µM. The Kd (mouse Slo1 K+ channels [1]; Kbo, extracellular quinidine, 300 μM Ca2+, pH 8.5, fit OB-CB (2') 4 params) was 1510 ± 160 µM, the Kd (mouse Slo1 K+ channels [1]; Kbo, extracellular quinidine, 300 μM Ca2+, pH 8.5, fit OB-CB (2a) 2 params) was 1490 ± 40 µM and the “zo (zδ)” value (mouse Slo1 K+ channels [1]; extracellular quinidine pH 7.0, 300 μM Ca2+, pH 8.5, fit OB (1a) 2 params) was 0.047 ± 0.01 e and 0.05 ± 0.01 e. For the same molecule, the zc (mouse Slo1 K+ channels [1]; [8]) was 0.66 ± 0.1 e, the zo (mouse Slo1 K+ channels [1]; [8]) was 0.06 ± 0.08 e and the “quinidine concentration giving strong block of Slo3” value ([2]; at potentials near 0 mV, irrespective of the side of application) was “less than 10 μM”. The zc [2, 9] was -0.55 ± 1.5 e, the zo [2, 9] was -0.27 ± 0.02 e and the Kb (mouse Slo1 K+ channels [3]) was 92.8 ± 9.8 µM. The Kd (mouse Slo1 K+ channels [3]) was 207 ± 7.4 µM, the “effective change in Kb(0), pH 8.5 versus pH 7.0” value (mouse Slo1 K+ channels [3]; cytosolic quinidine) was 1.56 fold and the zδ (mouse Slo1 K+ channels [3]; cytosolic quinidine, 10 μM Ca2+ at pH 7.0, Eqn. 1 open channel block) was 0.11 ± 0.03 e. The zo (mouse Slo1 K+ channels [3]; intracellular quinidine, 300 μM Ca2+, pH 8.5, fit OB-CB (2a) 2 params) was 0.28 ± 0.02 e, the “change in effective Kb(0), pH 8.5 versus pH 8.2” value ([4]; cytosolic quinidine, Scheme 2a) was “approximately 2 fold” and the zc [4, 10] was -0.15 ± 0.38 e. For the same molecule, the zo [4, 10] was -0.38 ± 0.10 e, the “block of MC13 at lower concentrations than block of Slo1 currents” value ([4]; quinidine, at potentials near 0 mV) was ~ 100 fold and the percent protonated [5] was 55.7% and 55.73%. The EC50 (IRK1) was 700 µM, the “inhibition of ROMK1” value (ROMK1) was “only moderately inhibited” and the “block of native KSper K+ channel” value [6] was “strongly block”. For the same molecule, the “lowest concentration at which effects on sperm function have been reported” value (sperm) was 20 µM, the “pK (one protonatable site)” value [7] was ~4.2 and the “pK (second protonatable site, value used)” value [7] was 8.6.
